Experimental data: ChEMBL document CHEMBL1201861, “Genomics of Drug Sensitity in Cancer screening data, Wellcome Trust Sanger Institute”

Experiments:
Test in all cases: cells
Details in all cases: Homo sapiens
TE-6 = type: functional, cell-based;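 also: growth inhibition of TE-6 cells, read out with a cell viability assay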
Description: SANGER: Inhibition of human TE-6 cell growth in a cell viability assay.

COLO-824 = type: functional, cell-based
Description: SANGER: Inhibition of human COLO-824 cell growth in a cell viability assay.

OVCAR-5 = type: functional, cell-based;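 also: growth inhibition of human OVCAR-5 cells, read out with a cell viability assay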
Description: SANGER: Inhibition of human OVCAR-5 cell growth in a cell viability assay.

A498 = type: functional, cell-based;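 also: growth inhibition of human A498 cells, read out with a cell viability assay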
Description: SANGER: Inhibition of human A498 cell growth in a cell viability assay.

LS-513 = type: functional, cell-based
Description: SANGER: Inhibition of human LS-513 cell growth in a cell viability assay.

VA-ES-BJ = type: functional, cell-based;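 also: growth inhibition of the VA-ES-BJ cell line, read out by a cell viability assay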
Description: SANGER: Inhibition of human VA-ES-BJ cell growth in a cell viability assay.

C8166 = type: functional, cell-based;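 also: growth inhibition of human C8166 cells measured by a cell viability assay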
Description: SANGER: Inhibition of human C8166 cell growth in a cell viability assay.

EW-11 = type: functional, cell-based;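 also: growth inhibition of human EW-11 cells, measured with a cell viability assay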
Description: SANGER: Inhibition of human EW-11 cell growth in a cell viability assay.

ATN-1 = type: functional, cell-based;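 also: growth inhibition of human ATN-1 cells, read out with a cell viability assay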
Description: SANGER: Inhibition of human ATN-1 cell growth in a cell viability assay.

NOMO-1 = type: functional, cell-based;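 also: growth inhibition of human NOMO-1 cells measured by a cell viability assay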
Description: SANGER: Inhibition of human NOMO-1 cell growth in a cell viability assay.

NB5 = type: functional, cell-based;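 also: growth inhibition of NB5 cells, read out as cell viability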
Description: SANGER: Inhibition of human NB5 cell growth in a cell viability assay.

MN-60 = type: functional, cell-based;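 also: growth inhibition of the MN-60 cell line, determined with a cell viability assay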
Description: SANGER: Inhibition of human MN-60 cell growth in a cell viability assay.

KURAMOCHI = type: functional, cell-based;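 also: growth inhibition of KURAMOCHI cells, read out with a cell viability assay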
Description: SANGER: Inhibition of human KURAMOCHI cell growth in a cell viability assay.

ES4 = type: functional, cell-based;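 also: growth inhibition of human ES4 cells, read out by a cell viability assay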
Description: SANGER: Inhibition of human ES4 cell growth in a cell viability assay.

RS4-11 = type: functional, cell-based;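 also: growth inhibition of RS4-11 cells, read out by a cell viability assay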
Description: SANGER: Inhibition of human RS4-11 cell growth in a cell viability assay.

MIA PaCa-2 = type: functional, cell-based;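 also: growth inhibition of MIA PaCa-2 cells, read out with a cell viability assay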
Description: SANGER: Inhibition of human MIA-PaCa-2 cell growth in a cell viability assay.

EW-16 = type: functional, cell-based;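 also: growth inhibition of human EW-16 cells, read out as cell viability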
Description: SANGER: Inhibition of human EW-16 cell growth in a cell viability assay.

BFTC-909 = type: functional, cell-based
Description: SANGER: Inhibition of human BFTC-909 cell growth in a cell viability assay.

BT-474 = type: functional, cell-based
Description: SANGER: Inhibition of human BT-474 cell growth in a cell viability assay.

SNU-5 = type: functional, cell-based;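 also: cell viability readout used to measure growth inhibition in human NCI-SNU-5 cells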
Description: SANGER: Inhibition of human NCI-SNU-5 cell growth in a cell viability assay.

NCI-H446 = type: functional, cell-based;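 also: growth inhibition of NCI-H446 cells determined by a cell viability assay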
Description: SANGER: Inhibition of human NCI-H446 cell growth in a cell viability assay.

LNCaP-Clone-FGC = type: functional, cell-based
Description: SANGER: Inhibition of human LNCaP-Clone-FGC cell growth in a cell viability assay.

EC-GI-10 = type: functional, cell-based
Description: SANGER: Inhibition of human EC-GI-10 cell growth in a cell viability assay.

C2BBe1 = type: functional, cell-based;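 also: growth inhibition of C2BBe1 cells, read out through a viability assay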
Description: SANGER: Inhibition of human C2BBe1 cell growth in a cell viability assay.

CCRF-CEM = type: functional, cell-based;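 also: inhibition of CCRF-CEM cell growth, measured by a cell viability assay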
Description: SANGER: Inhibition of human CCRF-CEM cell growth in a cell viability assay.

MeWo = type: functional, cell-based;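 also: growth inhibition of MeWo cells, determined by a cell viability readout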
Description: SANGER: Inhibition of human Mewo cell growth in a cell viability assay.

HCE-T = type: functional, cell-based;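 also: cell viability assay read-out, reporting inhibition of HCE-T cell growth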
Description: SANGER: Inhibition of human HCE-T cell growth in a cell viability assay.

LS-123 = type: functional, cell-based
Description: SANGER: Inhibition of human LS-123 cell growth in a cell viability assay.

KYSE-150 cell line = type: functional, cell-based;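 also: growth inhibition of human KYSE-150 cells, read out with a cell viability assay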
Description: SANGER: Inhibition of human KYSE-150 cell growth in a cell viability assay.

HEL = type: functional, cell-based;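 also: growth inhibition of HEL cells, read out with a cell viability assay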
Description: SANGER: Inhibition of human HEL cell growth in a cell viability assay.

EW-24 = type: functional, cell-based;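 also: human EW-24 cancer cell line, growth inhibition read out via a cell viability assay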
Description: SANGER: Inhibition of human EW-24 cell growth in a cell viability assay.

SK-UT-1 = type: functional, cell-based;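 also: growth inhibition of SK-UT-1 cells, measured by a cell viability assay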
Description: SANGER: Inhibition of human SK-UT-1 cell growth in a cell viability assay.

SK-MEL-1 = type: functional, cell-based;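 also: growth inhibition of human SK-MEL-1 cells, read out by a cell viability assay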
Description: SANGER: Inhibition of human SK-MEL-1 cell growth in a cell viability assay.

SK-OV-3 = type: functional, cell-based;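 also: growth inhibition of SK-OV-3 human cells, read out with a cell viability assay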
Description: SANGER: Inhibition of human SK-OV-3 cell growth in a cell viability assay.

OS-RC-2 = type: functional, cell-based;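 also: growth inhibition of human OS-RC-2 cells, measured by a cell viability assay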
Description: SANGER: Inhibition of human OS-RC-2 cell growth in a cell viability assay.

COLO-741 = type: functional, cell-based
Description: SANGER: Inhibition of human COLO-741 cell growth in a cell viability assay.

MPP-89 = type: functional, cell-based;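 also: growth inhibition of human MPP-89 cells, read out with a cell viability assay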
Description: SANGER: Inhibition of human MPP-89 cell growth in a cell viability assay.

ML-2 = type: functional, cell-based;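 also: growth inhibition of ML-2 cells, measured with a cell viability readout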
Description: SANGER: Inhibition of human ML-2 cell growth in a cell viability assay.

NCI-H1304 = type: functional, cell-based;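 also: growth inhibition of the cancer cell line, measured in a cell viability assay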
Description: SANGER: Inhibition of human NCI-H1304 cell growth in a cell viability assay.

SF-268 = type: functional, cell-based;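 also: growth inhibition of SF-268 cells determined with a cell viability assay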
Description: SANGER: Inhibition of human SF268 cell growth in a cell viability assay.

LB373-MEL-D = type: functional, cell-based;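 also: growth inhibition of the cell line, read out in a cell viability assay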
Description: SANGER: Inhibition of human LB373-MEL-D cell growth in a cell viability assay.

OCI-AML2 = type: functional, cell-based;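 also: growth inhibition of OCI-AML2 cells, read out with a cell viability assay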
Description: SANGER: Inhibition of human OCI-AML2 cell growth in a cell viability assay.

MZ1-PC = type: functional, cell-based;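 also: cell viability assay measuring growth inhibition of human MZ1-PC cells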
Description: SANGER: Inhibition of human MZ1-PC cell growth in a cell viability assay.

NCI-H1299 = type: functional, cell-based;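 also: growth inhibition of human NCI-H1299 cells, read out by a cell viability assay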
Description: SANGER: Inhibition of human NCI-H1299 cell growth in a cell viability assay.

EW-13 = type: functional, cell-based;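 also: growth inhibition of EW-13 cells, read out with a cell viability assay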
Description: SANGER: Inhibition of human EW-13 cell growth in a cell viability assay.

LU-139 = type: functional, cell-based
Description: SANGER: Inhibition of human LU-139 cell growth in a cell viability assay.

no-10 = type: functional, cell-based;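 also: growth inhibition of no-10 cells, read out with a cell viability assay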
Description: SANGER: Inhibition of human no-10 cell growth in a cell viability assay.

NCI-H1648 = type: functional, cell-based;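 also: cell viability assay measuring inhibition of NCI-H1648 cell growth, from the Sanger screening data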
Description: SANGER: Inhibition of human NCI-H1648 cell growth in a cell viability assay.

no-11 = type: functional, cell-based;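 also: growth inhibition of human NO-11 cells, read out with a cell viability assay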
Description: SANGER: Inhibition of human no-11 cell growth in a cell viability assay.

ES6 = type: functional, cell-based;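 also: growth inhibition of human ES6 cells, read out with a cell viability assay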
Description: SANGER: Inhibition of human ES6 cell growth in a cell viability assay.

OMC-1 = type: functional, cell-based;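 also: growth inhibition of the OMC-1 cell line, measured by a cell viability assay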
Description: SANGER: Inhibition of human OMC-1 cell growth in a cell viability assay.

ETK-1 = type: functional, cell-based;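 also: growth inhibition of human ETK-1 cells, read out with a cell viability assay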
Description: SANGER: Inhibition of human ETK-1 cell growth in a cell viability assay.

TK-10 = type: functional, cell-based;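 also: growth inhibition of TK-10 cells, read out in a cell viability assay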
Description: SANGER: Inhibition of human TK10 cell growth in a cell viability assay.

HT1197 = type: functional, cell-based, HT-1197
Description: SANGER: Inhibition of human HT-1197 cell growth in a cell viability assay.

SW 954 = type: functional, cell-based;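 also: growth inhibition of SW954 human cancer cells, read out as cell viability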
Description: SANGER: Inhibition of human SW954 cell growth in a cell viability assay.

MKN-1 = type: functional, cell-based;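 also: growth inhibition of human MKN1 cells, read out by a cell viability measurement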
Description: SANGER: Inhibition of human MKN1 cell growth in a cell viability assay.

BB49-HNC = type: functional, cell-based;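 also: cell viability assay read-out, reported as inhibition of BB49-HNC cell growth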
Description: SANGER: Inhibition of human BB49-HNC cell growth in a cell viability assay.

KE-37 = type: functional, cell-based;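 also: growth inhibition of KE-37 cells, read out with a cell viability assay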
Description: SANGER: Inhibition of human KE-37 cell growth in a cell viability assay.

DMS-79 = type: functional, cell-based;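 also: growth inhibition measured with a cell viability assay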
Description: SANGER: Inhibition of human DMS-79 cell growth in a cell viability assay.

AGS = type: functional, cell-based
Description: SANGER: Inhibition of human AGS cell growth in a cell viability assay.

NC(=O)c1ncn([C@@H]2O[C@H](COP(=O)(O)O)[C@@H](O)[C@H]2O)c1N
IC50 (TE-6): > 2 mM | IC50 (COLO-824): 1.13 mM | IC50 (OVCAR-5): > 2 mM | IC50 (A498): > 2 mM | IC50 (LS-513): > 2 mM | IC50 (VA-ES-BJ): 819 µM | IC50 (C8166): 1.17 mM | IC50 (EW-11): 1.09 mM | IC50 (ATN-1): 412 µM | IC50 (NOMO-1): 847 µM | IC50 (NB5): > 2 mM | IC50 (MN-60): > 2 mM | IC50 (KURAMOCHI): > 2 mM | IC50 (ES4): 1.77 mM | IC50 (RS4-11): 351 µM | IC50 (MIA PaCa-2): > 2 mM | IC50 (EW-16): > 2 mM | IC50 (BFTC-909): > 2 mM | IC50 (BT-474): > 2 mM | IC50 (SNU-5): > 2 mM | IC50 (NCI-H446): > 2 mM | IC50 (LNCaP-Clone-FGC): > 2 mM | IC50 (EC-GI-10): > 2 mM | IC50 (C2BBe1): 597 µM | IC50 (CCRF-CEM): > 2 mM | IC50 (MeWo): > 2 mM | IC50 (HCE-T): 715 µM | IC50 (LS-123): 690 µM | IC50 (KYSE-150 cell line): 1.01 mM | IC50 (HEL): 804 µM | IC50 (EW-24): > 2 mM | IC50 (SK-UT-1): > 2 mM | IC50 (SK-MEL-1): > 2 mM | IC50 (SK-OV-3): > 2 mM | IC50 (OS-RC-2): > 2 mM | IC50 (COLO-741): > 2 mM | IC50 (MPP-89): > 2 mM | IC50 (ML-2): > 2 mM | IC50 (NCI-H1304): > 2 mM | IC50 (SF-268): > 2 mM | IC50 (LB373-MEL-D): > 2 mM | IC50 (OCI-AML2): 1.15 mM | IC50 (MZ1-PC): > 2 mM | IC50 (NCI-H1299): > 2 mM | IC50 (EW-13): > 2 mM | IC50 (LU-139): 803 µM | IC50 (no-10): > 2 mM | IC50 (NCI-H1648): > 2 mM | IC50 (no-11): > 2 mM | IC50 (ES6): > 2 mM | IC50 (OMC-1): > 2 mM | IC50 (ETK-1): 541 µM | IC50 (TK-10): > 2 mM | IC50 (HT1197): > 2 mM | IC50 (SW 954): 412 µM | IC50 (MKN-1): > 2 mM | IC50 (BB49-HNC): > 2 mM | IC50 (KE-37): 534 µM | IC50 (DMS-79): > 2 mM | IC50 (AGS): > 2 mM
